Measured values reported in PMC11054271, “ABCG2 Transports the Flukicide Nitroxynil and Affects Its Biodistribution and Secretion into Milk” (Pharmaceutics, 2024).

Experiments:
[1] = Transepithelial transport assay in parental MDCK-II monolayers; format: in vitro ADME, canine; conditions: dog, nitroxynil 10 µM, no Ko143, read-out: Relative efflux transport ratio (BA/AB)
Method: Parental Madin–Darby canine kidney epithelial cells (MDCK–II) and their subclones transduced with murine (mAbcg2) and human (hABCG2) variants of ABCG2 were kindly provided by Dr. A. H. Schinkel (Netherlands Cancer Institute). Transduced MDCK–II cells with the ovine (oABCG2) and bovine (bABCG2) variants were previously generated by our group. Cells were cultured as described elsewhere.
Transepithelial transport assays were carried out as previously described with minor variations, using Hanks’ balanced salt solution (Sigma-Aldrich) supplemented with HEPES (25 mM), with or without Ko143 (1 μM), and containing or not nitroxynil 10 μM. […] At the end of the experiment, confluence of the monolayer was measured with the previously described Lucifer Yellow permeability test, with minor modifications. The appearance of nitroxynil in the opposite side of the well was measured by HPLC as later described. Active transport was expressed as relative efflux transport ratio (apically directed transport percentage divided by the basolaterally directed translocation percentage) at 4 h and referred to the initial concentration. […]
(§1) Waters 2695 separation module and Waters 2998 UV photodiode array detector set at 270 nm were used for samples analysis. […] Limit of detection (LOD) and quantification (LOQ) were calculated as previously described. […]

murine Abcg2 = target: T1, murine Abcg2 (Mus musculus, UniProt Q7TMS5); experiment: Milk secretion experiment in lactating wild-type and Abcg2−/− female mice; format: in vivo; parameters: from tissue; host or cells: whole animal: wild-type vs Abcg2-/- mice, >99% FVB/N background; conditions: lactating female mice, 30 min after 10 mg/kg i.v.
T1 sequence (Q7TMS5 1-657): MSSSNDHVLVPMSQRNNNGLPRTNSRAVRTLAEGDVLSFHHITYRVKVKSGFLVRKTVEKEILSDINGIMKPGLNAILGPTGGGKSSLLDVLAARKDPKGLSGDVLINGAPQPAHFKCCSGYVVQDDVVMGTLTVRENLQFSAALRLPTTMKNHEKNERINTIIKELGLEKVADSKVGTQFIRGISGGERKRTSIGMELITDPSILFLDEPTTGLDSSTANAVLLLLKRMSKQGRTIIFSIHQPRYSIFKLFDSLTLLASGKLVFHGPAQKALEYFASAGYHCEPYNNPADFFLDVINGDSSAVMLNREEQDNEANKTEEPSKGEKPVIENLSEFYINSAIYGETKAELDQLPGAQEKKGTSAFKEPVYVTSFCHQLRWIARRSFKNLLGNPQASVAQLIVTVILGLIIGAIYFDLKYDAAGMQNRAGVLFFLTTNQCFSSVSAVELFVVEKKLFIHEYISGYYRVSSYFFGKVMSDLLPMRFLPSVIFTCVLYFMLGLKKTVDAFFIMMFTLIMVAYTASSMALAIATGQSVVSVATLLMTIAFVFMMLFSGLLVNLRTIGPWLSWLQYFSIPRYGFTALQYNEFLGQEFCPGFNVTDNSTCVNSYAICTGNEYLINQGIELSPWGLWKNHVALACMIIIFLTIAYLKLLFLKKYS
Method: All in vivo experiments were carried out using wild-type and Abcg2^−/− mice aged between 8 and 17 weeks, all of >99% FVB/N genetic background, generated and gently supplied by A. H. Schinkel (Netherlands Cancer Institute). Mice were housed and handled complying with institutional and ARRIVE guidelines and European legislation (EU Directive 2010/63/EU for animal experiments). Additionally, experimental procedures were approved by the Animal Care and Use Committee of the University of León and the Junta de Castilla y León (ULE_011_2019).
Pups of approximately 10 days old were separated from their mothers (wild-type (n = 10) and Abcg2^−/− (n = 11) female mice) 3 h before beginning the experiment. Milk secretion experiments were performed as previously described. Nitroxynil solution was prepared by diluting Distomicide® (250 mg/mL) commercial solution in saline and administered at a dose of 150 μL/30 g bw into the tail vein under anesthesia with isoflurane. […]
Plasma, milk and tissue samples from each animal were individually processed and analyzed without pooling, while samples from transport assays were not processed. […]
as §1

N#Cc1cc(I)c(O)c([N+](=O)[O-])c1 [nitroxynil]
efflux ratio at 4 h, 10 µM [1]: 1.04 ± 0.03 | Milk concentration, fold higher in wild-type compared with Abcg2−/− (murine Abcg2): 1.9 fold | Milk-to-plasma ratio, fold higher in wild-type compared with Abcg2−/− (murine Abcg2): 2.1 fold
